Measurements published in patent publication US20250098679A1, “HERBICIDAL PYRIDONE DERIVATIVES” (SYNGENTA CROP PROTECTION AG, priority 2021, published 2025).

Tests used:
Format in all cases: in vivo
Settings in all cases: evaluated after 13 days
[1] = system: Echinochloa crus-galli (ECHCG); test: Post-emergence Test, Echinochloa crus-galli (ECHCG); set-up: key to percentage damage caused to the plant, ECHCG (five-point scale): 5=81-100%, 4=61-80%, 3=41-60%, 2=21-40%, 1=0-20% damage
Method in brief: (§1)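 Application was a spray of acetone/water (50:50) with 0.5% Tween 20 onto pots of test species sown in standard soil. Unless otherwise stated, the rate was 1000 g/ha. After 13 days under glasshouse conditions (24/16 °C, 65% humidity), injury was scored from 1 (0-20%) to 5 (81-100%).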

[2] = system: Amaranthus retoflexus (AMARE); test: Post-emergence Test, Amaranthus retoflexus (AMARE); set-up: key to percentage damage caused to the plant, AMARE (five-point scale): 5=81-100%, 4=61-80%, 3=41-60%, 2=21-40%, 1=0-20% damage
Method in brief: as §1

[3] = system: Amaranthus palmeri (AMAPA); test: Pre-emergence Test, Amaranthus palmeri (AMAPA)
[4] = system: Setaria faberi (SETFA); test: Pre-emergence Test, Setaria faberi (SETFA)
[5] = system: Amaranthus retoflexus (AMARE); test: Pre-emergence Test, Amaranthus retoflexus (AMARE)
[6] = system: Setaria faberi (SETFA); test: Post-emergence Test, Setaria faberi (SETFA); set-up: key to percentage damage caused to the plant, SETFA (five-point scale): 5=81-100%, 4=61-80%, 3=41-60%, 2=21-40%, 1=0-20% damage
Method in brief: as §1

[7] = system: Zea mays (ZEAMX); test: Pre-emergence Test, Zea mays (ZEAMX)
[8] = system: Ipomoea hederacea (IPOHE); test: Post-emergence Test, Ipomoea hederacea (IPOHE); set-up: key to percentage damage caused to the plant, IPOHE (five-point scale): 5=81-100%, 4=61-80%, 3=41-60%, 2=21-40%, 1=0-20% damage
Method in brief: as §1

[9] = system: Amaranthus palmeri (AMAPA); test: Post-emergence Test, Amaranthus palmeri (AMAPA); set-up: key: 5=81-100%, 4=61-80%, 3=41-60%, 2=21-40%, 1=0-20% damage
Method in brief: as §1

[10] = system: Ipomoea hederacea (IPOHE); test: Pre-emergence Test, Ipomoea hederacea (IPOHE)
[11] = system: Echinochloa crus-galli (ECHCG); test: Pre-emergence Test, Echinochloa crus-galli (ECHCG)
[12] = system: Zea mays (ZEAMX); test: Post-emergence Test, Zea mays (ZEAMX); set-up: key to percentage damage caused to the plant, ZEAMX (five-point scale): 5=81-100%, 4=61-80%, 3=41-60%, 2=21-40%, 1=0-20% damage
Method in brief: as §1

Row | SMILES | percentage damage caused to the plant, ECHCG (five-point scale) ([1]; 250 g/Ha) | percentage damage caused to the plant, ECHCG (five-point scale) ([1]; 1000 g/ha) | percentage damage caused to the plant, AMARE (five-point scale) ([2]; 250 g/Ha) | percentage damage caused to the plant, AMARE (five-point scale) ([2]; 1000 g/ha) | Pre-emergence Test AMAPA, percentage damage caused to the plant (five-point scale) ([3]; 1000 g/ha) | Pre-emergence Test SETFA, percentage damage caused to the plant (five-point scale) ([4]; 1000 g/ha) | Pre-emergence Test AMARE, percentage damage caused to the plant (five-point scale) ([5]; 1000 g/ha) | percentage damage caused to the plant, SETFA (five-point scale) ([6]; 250 g/Ha) | percentage damage caused to the plant, SETFA (five-point scale) ([6]; 1000 g/ha) | Pre-emergence Test ZEAMX, percentage damage caused to the plant (five-point scale) ([7]; 1000 g/ha) | percentage damage caused to the plant, IPOHE (five-point scale) ([8]; 250 g/Ha) | percentage damage caused to the plant, IPOHE (five-point scale) ([8]; 1000 g/ha) | percentage damage caused to the plant, AMAPA (five-point scale) ([9]; 250 g/Ha) | percentage damage caused to the plant, AMAPA (five-point scale) ([9]; 1000 g/ha) | Pre-emergence Test IPOHE, percentage damage caused to the plant (five-point scale) ([10]; 1000 g/ha) | Pre-emergence Test ECHCG, percentage damage caused to the plant (five-point scale) ([11]; 1000 g/ha) | percentage damage caused to the plant, ZEAMX (five-point scale) ([12]; 250 g/Ha) | percentage damage caused to the plant, ZEAMX (five-point scale) ([12]; 1000 g/ha) | further results
1 | Cn1c(Cn2ccc(Cl)n2)cc(=O)c(C(=O)O)c1-c1ccc(Cl)c(Cl)c1 [Compound 34, 6-[(3-chloropyrazol-1-yl)methyl]-2-(3,4-dichlorophenyl)-1-methyl-4-oxo-pyridine-3-carboxylic acid] | 2 (2=21-40%) | 4 (4=61-80%) | 1 (1=0-20%) | 1 (1=0-20%) | 1 (1=0-20%) | 5 (5=81-100%) | 0 | 3 (3=41-60%) | 4 (4=61-80%) | 0 | 4 (4=61-80%) | 4 (4=61-80%) | 1 (1=0-20%) | 3 (3=41-60%) | 0 | 5 (5=81-100%) | 1 (1=0-20%) | 2 (2=21-40%) | 
2 | CCn1c(Cn2ccc(SC)n2)cc(=O)c(C(=O)O)c1-c1ccc(Cl)c(Cl)c1 [Compound 35, 2-(3,4-dichlorophenyl)-1-ethyl-6-[(3-methylsulfanylpyrazol-1-yl)methyl]-4-oxo-pyridine-3-carboxylic acid] | 3 (3=41-60%) | 4 (4=61-80%) |  | 3 (3=41-60%) | 2 (2=21-40%) | 4 (4=61-80%) | 1 (1=0-20%) | 4 (4=61-80%) | 4 (4=61-80%) | 5 (5=81-100%) | 4 (4=61-80%) | 2 (2=21-40%) | 1 (1=0-20%) | 1 (1=0-20%) | 4 (4=61-80%) | 5 (5=81-100%) | 2 (2=21-40%) | 3 (3=41-60%) | 
3 | CCn1c(Cn2ccc(F)n2)cc(=O)c(C(=O)O)c1-c1ccc(Cl)c(Cl)c1 [Compound 36, 2-(3,4-dichlorophenyl)-1-ethyl-6-[(3-fluoropyrazol-1-yl)methyl]-4-oxo-pyridine-3-carboxylic acid] | 3 (3=41-60%) |  | 2 (2=21-40%) |  |  |  |  | 4 (4=61-80%) |  |  | 4 (4=61-80%) |  | 1 (1=0-20%) |  |  |  | 2 (2=21-40%) |  | Pre-emergence Test AMAPA, percentage damage caused to the plant (five-point scale) ([3]; 250 g/Ha (*)): 2 (2=21-40%); Pre-emergence Test SETFA, percentage damage caused to the plant (five-point scale) ([4]; 250 g/Ha (*)): 4 (4=61-80%); Pre-emergence Test AMARE, percentage damage caused to the plant (five-point scale) ([5]; 250 g/Ha (*)): 1 (1=0-20%); Pre-emergence Test ZEAMX, percentage damage caused to the plant (five-point scale) ([7]; 250 g/Ha (*)): 0; Pre-emergence Test IPOHE, percentage damage caused to the plant (five-point scale) ([10]; 250 g/Ha (*)): 0; Pre-emergence Test ECHCG, percentage damage caused to the plant (five-point scale) ([11]; 250 g/Ha (*)): 3 (3=41-60%)
4 | CCn1c(Cn2ccc(OC(F)F)n2)cc(=O)c(C(=O)O)c1-c1ccc(Cl)c(Cl)c1 [Compound 37, 2-(3,4-dichlorophenyl)-6-[[3-(difluoromethoxy)pyrazol-1-yl]methyl]-1-ethyl-4-oxo-pyridine-3-carboxylic acid] | 4 (4=61-80%) | 4 (4=61-80%) | 2 (2=21-40%) | 1 (1=0-20%) | 2 (2=21-40%) | 5 (5=81-100%) | 1 (1=0-20%) | 4 (4=61-80%) | 5 (5=81-100%) | 5 (5=81-100%) | 4 (4=61-80%) | 2 (2=21-40%) | 2 (2=21-40%) | 4 (4=61-80%) | 4 (4=61-80%) | 5 (5=81-100%) | 1 (1=0-20%) | 4 (4=61-80%) | 
5 | CCn1c(Cn2ccc(OC)n2)cc(=O)c(C(=O)O)c1-c1ccc(Cl)c(Cl)c1 [Compound 38, 2-(3,4-dichlorophenyl)-1-ethyl-6-[(3-methoxypyrazol-1-yl)methyl]-4-oxo-pyridine-3-carboxylic acid] | 3 (3=41-60%) | 4 (4=61-80%) | 2 (2=21-40%) | 4 (4=61-80%) | 3 (3=41-60%) | 5 (5=81-100%) | 2 (2=21-40%) | 4 (4=61-80%) | 4 (4=61-80%) | 5 (5=81-100%) | 4 (4=61-80%) | 3 (3=41-60%) | 1 (1=0-20%) | 4 (4=61-80%) | 4 (4=61-80%) | 5 (5=81-100%) | 2 (2=21-40%) | 4 (4=61-80%) | 
